Laboratory results from patent US11491178B2, “Chitosan covalently linked with small molecule integrin antagonist for targeted delivery” (Hoffmann-La Roche Inc., priority 2012, dated 2022).
Read-outs that look alike come from different tables or passages of the source.

Target: T1, VLA-4 (α4β1) (Homo sapiens, UniProt P05556+P13612)
T1 construct: Jurkat cells express high levels of VLA-4 on their membrane surface; host or cells: Jurkat Clone E6-1
Assay: VLA-4 (α4β1) binding assay: Jurkat cell adhesion to VCAM-1-coated plates
Type: cell-based
Procedure: Chitosan covalently linked with small molecule α4β1 antagonists having the general structure of formula IA below were assessed for their α4β1 (VLA-4) binding affinity:
The following adhesion assay has been reported previously and used in this invention with minor modification. See U.S. Pat. Nos. 6,229,011 and 6,380,387 both of which are incorporated herein by reference in their entirety. […] Each assay was conducted in a 96-well plate with VCAM-1 used as the counter ligand for the cells (i.e., VCAM-1 was bound to the surface of the wells).
More specifically, 96-well high-binding F96 Maxisorp immuno microtiter plates (Nunc) were coated overnight with 25 ng/well of VCAM-1. […]
To assess VLA-4 inhibition by the VLA-4 targeted chitosans (from the examples), Jurkat cells (expressing high levels of VLA-4) were added to the VCAM-1-coated plates to a final concentration of 2×10^5 cells/well in 96-well plates and allowed to incubate with the test chitosans (from the examples) for 45 minutes at 37° C. After removing unbound cells by gently washing the wells with PBS, the fluorescence signal from the bound cells was read on a Tecan Safire2 microplate reader at 450 nm. Points were plotted and the IC50s of each derivatized chitosan polymer were determined by regression analysis using the linear portion of the concentration-response curve.

T1 sequence (P13612 34-1032): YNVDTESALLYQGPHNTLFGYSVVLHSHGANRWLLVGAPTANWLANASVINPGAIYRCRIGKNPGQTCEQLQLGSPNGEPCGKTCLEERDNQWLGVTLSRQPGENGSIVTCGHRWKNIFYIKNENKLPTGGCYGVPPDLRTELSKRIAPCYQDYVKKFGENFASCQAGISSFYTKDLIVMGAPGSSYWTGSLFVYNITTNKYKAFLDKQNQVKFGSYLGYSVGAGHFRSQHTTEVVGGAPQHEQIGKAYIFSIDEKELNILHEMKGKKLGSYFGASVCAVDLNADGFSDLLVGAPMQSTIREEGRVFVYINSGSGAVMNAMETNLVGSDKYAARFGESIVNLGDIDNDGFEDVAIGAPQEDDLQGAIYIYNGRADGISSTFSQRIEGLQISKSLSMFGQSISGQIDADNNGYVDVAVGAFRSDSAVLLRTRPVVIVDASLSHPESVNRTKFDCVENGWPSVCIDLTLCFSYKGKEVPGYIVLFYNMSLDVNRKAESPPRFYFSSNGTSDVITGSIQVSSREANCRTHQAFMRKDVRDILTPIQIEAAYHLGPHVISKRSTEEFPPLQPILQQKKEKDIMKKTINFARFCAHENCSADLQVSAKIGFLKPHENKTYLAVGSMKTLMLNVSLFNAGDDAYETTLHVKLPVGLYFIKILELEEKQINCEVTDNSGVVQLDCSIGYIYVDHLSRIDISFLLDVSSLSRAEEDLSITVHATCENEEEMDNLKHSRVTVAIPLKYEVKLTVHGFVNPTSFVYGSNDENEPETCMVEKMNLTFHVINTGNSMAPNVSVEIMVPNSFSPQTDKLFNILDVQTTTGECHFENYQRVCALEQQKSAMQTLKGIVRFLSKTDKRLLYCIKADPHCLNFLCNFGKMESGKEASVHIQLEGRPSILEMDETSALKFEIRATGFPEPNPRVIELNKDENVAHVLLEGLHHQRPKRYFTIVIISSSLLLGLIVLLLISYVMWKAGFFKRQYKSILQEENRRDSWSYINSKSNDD
T1 sequence (P05556 21-798): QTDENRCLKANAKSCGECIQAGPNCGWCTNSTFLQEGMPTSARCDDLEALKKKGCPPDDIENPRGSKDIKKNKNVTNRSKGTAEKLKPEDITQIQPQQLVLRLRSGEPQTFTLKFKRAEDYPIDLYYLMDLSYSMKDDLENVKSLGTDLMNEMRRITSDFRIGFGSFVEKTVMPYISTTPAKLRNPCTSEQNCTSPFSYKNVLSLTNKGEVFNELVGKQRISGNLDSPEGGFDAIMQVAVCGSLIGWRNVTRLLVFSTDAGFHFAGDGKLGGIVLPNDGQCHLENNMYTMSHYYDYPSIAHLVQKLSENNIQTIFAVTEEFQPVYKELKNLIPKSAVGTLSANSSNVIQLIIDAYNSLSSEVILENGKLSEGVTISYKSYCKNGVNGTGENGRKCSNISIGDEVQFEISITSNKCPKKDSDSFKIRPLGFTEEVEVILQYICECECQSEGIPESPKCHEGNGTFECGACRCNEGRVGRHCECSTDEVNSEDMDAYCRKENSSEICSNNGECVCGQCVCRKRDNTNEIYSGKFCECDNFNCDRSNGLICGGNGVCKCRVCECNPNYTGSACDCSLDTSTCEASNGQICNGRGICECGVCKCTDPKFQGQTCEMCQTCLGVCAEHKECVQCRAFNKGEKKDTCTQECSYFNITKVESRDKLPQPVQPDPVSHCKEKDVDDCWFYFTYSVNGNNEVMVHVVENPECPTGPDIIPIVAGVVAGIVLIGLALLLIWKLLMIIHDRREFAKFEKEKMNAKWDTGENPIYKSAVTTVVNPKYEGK

- IC50 (Jurkat cells on VCAM-1-coated plates, Mn2+ activated, 45 minutes at 37° C., Table 1, read-out: Binding IC50): 4 nM
- IC50 (control compound in the Jurkat/VCAM-1 adhesion assay, read-out: IC50): ~12 nM
Structure (SMILES): Cc1cccc(Cl)c1C(=O)NC(Cc1ccc(NC(=O)c2c(Cl)cccc2Cl)cc1)C(=O)O (centres unmarked) [Control (27), reference compound]
